# Experimental data taken from US5130139A, “Reduction or prevention of skin irritation by drugs” (Alza Corporation, priority 1990, dated 1992).
# Like-named read-outs stand apart in the source and are kept apart here.
# What was measured:
# human skin fibroblasts [1] = assay: in vitro
# Text: (§1) The following examples are offered to illustrate the practice of the present invention. It is important to note that this invention is not limited to any particular transdermal device or other form of transdermal delivery, as are commonly known in the art. Nor is this invention limited to a particular formulation. Therefore, the embodiments described herein are merely illustrative and are not intended to limit the scope of the invention in any manner.
# (§2) Four beta-adrenergic blocking drugs (propranolol, labetalol, pindolol and timolol) were tested for their uptake and their toxicity in human skin fibroblasts.
# (§3) To estimate the toxicity of the tested compounds, the general procedure of the MTT assay (Swisher et al., Models Dermatol., Maibach and Lowe (eds.), Basel, Karger, vol. 4, pp 131-137, 1989) was used. Cell cultures of fibroblasts were incubated for 16 hours in medium containing a range of concentrations of the drug being tested. At the end of the incubation time, the medium was removed and replaced with medium containing MTT at 0.5 mg/ml. After 3 hours, this medium was discarded and the blue formazan, a metabolite of MTT produced only by viable cells, was dissolved in acidified isopropanol. Absorbance of this solution was measured at 540 nm against a reference wavelength of 660 nm. Results were then expressed as percent of control cultures incubated in the same conditions without drug or agent.
# (§4) The treated cells were also tested for the cytotoxic effect of propranolol in the presence of various concentrations of monensin, following the procedures of Example 1.
# (§5) They were tested with 10^-6 M monensin.
# (§6) In the Table, the "factor of protection" is the ratio of the ID50 of the toxic drug incubated with monensin to the ID50 of the toxic drug alone.
# (§7) The action of various ionophores and amphiphilic amines on the cytotoxicity of propranolol and chloroquine was determined, following the procedures of Example 1. The "factor of protection" corresponds to the ratio of the ID50 of the toxic drug incubated with uptake-inhibiting agent at the indicated concentration, to the ID50 of the toxic drug alone. The "mode of action" indicates either the ions which are preferentially carried by the tested ionophores or that the agent acts by competition.
# [2] = tested on: skin irritation (erythema), volar forearm; assay: In vivo skin irritation (erythema, Minolta Chromameter) after 16 h application of gel to volar forearm; parameters: species or system human; settings: monensin 5.0 wt % with chloroquine 1.0 wt % gel
# Method: The resulting gels were buffered to pH 8.5 with EPPS buffer and contained 30 wt % ethanol to maintain the solubility of the drug.
# All of the gels were placed in such manner. After 16 hours, each cup was removed and the site was washed. At various times thereafter the sites were observed and the intensity of the irritant reaction (the erythema) was scored by measuring skin color with an electronic instrument, the Minolta Chromameter.
# human skin fibroblasts [3] = assay: Uptake/accumulation of radiolabelled drug in fibroblasts, 16 h incubation; type: cell-based
# Method: For the uptake studies, cell cultures of fibroblasts were exposed to medium containing the radioactive-labelled drug and incubated for 16 hours. The uptake process was then stopped by removing the medium and rapidly washing the cells with cold PBS three times. The cells were then extracted with methanol which was transferred to counting vials, and the amount of radioactivity was measured by liquid scintillation. To compensate for non-specific binding to the plastic of the wells, wells containing no cells were incubated with the radiolabelled drugs under the same conditions. The radioactive content of those wells was taken as the control value and substracted form the radioactive content of the wells containing cells.
# Fibroblast cell cultures were incubated for 16 hours in propranolol (2×10^-7 M) with various concentrations of monensin. The accumulation of propranolol in the cells was then determined, following the procedures of Example 1. […] At 10^-5 M monensin, propranolol uptake was negligible even though the cells were fully viable.
# in vitro = settings: human, skin fibroblasts
# Text: as §1, §2, §3, §4, §5, §6, §7
# lysosomes = settings: literature; cited from earlier work
# [4] = In vitro permeation through human epidermis from gels; type: in vitro ADME; settings: gels of Example 5; 37° C.; sampled at 3, 8 and 24 hours
# Method: Circular pieces of human epidermis were mounted in horizontal permeation cells (1.13 cm^2 of effective permeating surface) with the stratum corneum facing the donor compartment of the cell. A known volume (20-23 ml) of 0.2M TRIS buffer pH 7.5 (the receptor solution) was placed in the receptor compartment. The cell was then placed in a water bath-shaker at 37° C. and allowed to equilibrate. A 0.2 ml aliquot of the tested formulation was transferred to the donor compartment. Occlusion was achieved by the use of a teflon film in contact with the formulation. At 3, 8 and 24 hours, the receptor solutions were removed and replaced with equal volumes of fresh receptor solution previously equilibrated at 37° C. Chloroquine was quantified in the samples by fluorometrical measurements. These were carried out at room temperature in a Perkin-ElmerLS-5B luminescence spectrometer. The samples were adjusted to pH 8.65 at a final TRIS concentration of 0.1M and 30% (vol/vol) ethanol. The excitation wavelength was 333 nm and the emission wavelength was 382 nm. Chloroquine concentrations were extrapolated by comparison with a standard curve obtained under the same conditions. […] For each formulation condition, eight permeation cells were used. Results are presented as the means with their associated standard error.
# [5] = against chloroquine cytotoxicity, agent 10^-2 M
# [6] = against chloroquine cytotoxicity, agent 10^-5 M
# [7] = against propranolol cytotoxicity, agent 10^-5 M
compound,measurement,setting,value
CC(C)N [Isopropylamine],"Factor of Protection, Chloroquine (ID50 with agent / ID50 alone)",human skin fibroblasts [1]; [5],6.2
CNc1ccc2oc(C[C@H]3O[C@@]4(CC[C@H]3C)O[C@H]([C@H](C)C(=O)c3ccc[nH]3)[C@H](C)C[C@H]4C)nc2c1C(=O)O [A23187],"Factor of Protection, Chloroquine (ID50 with agent / ID50 alone)","human skin fibroblasts [1]; against chloroquine cytotoxicity, agent 10^-6 M",11
same,"Factor of Protection, Propranolol (ID50 with agent / ID50 alone)","human skin fibroblasts [1]; against propranolol cytotoxicity, agent 10^-6 M",1
"CC[C@@]1([C@@H]2O[C@@H]([C@H]3O[C@@](O)(CO)[C@H](C)C[C@@H]3C)C[C@@H]2C)CC[C@H]([C@]2(C)CC[C@]3(C[C@H](O)[C@@H](C)[C@@H]([C@@H](C)[C@@H](OC)[C@H](C)C(=O)O)O3)O2)O1 [Monensin, monensin]",Effect of monensin on toxicity of five weak base drugs,"human skin fibroblasts [1]; 10^-6 M monensin, clemastine, imipramine, chlorpromazine, quinacrine, chloroquine",reduced the toxicity of all the drugs
same,"Factor of Protection, Chloroquine (ID50 with agent / ID50 alone)",human skin fibroblasts [1]; [6],19
same,"Factor of Protection, Propranolol (ID50 with agent / ID50 alone)","human skin fibroblasts [1]; against propranolol cytotoxicity, agent 10^-5 M, pre-treatment of 2 hours with agent",1.41
same,Effect of monensin on propranolol toxicity,human skin fibroblasts [1]; monensin 10^-8 M to 10^-5 M,dose-dependent decrease of propranolol toxicity
same,Effect of monensin on irritant reaction (erythema),[2],reduced the irritant reaction
same,Propranolol uptake at 10^-5 M monensin,"human skin fibroblasts [3]; propranolol 2×10^-7 M, monensin 10^-5 M",negligible
same,Effect of monensin on propranolol uptake in the cells,"human skin fibroblasts [3]; propranolol 2×10^-7 M, monensin 10^-8 M to 10^-5 M",decreased propranolol uptake in the cells in a dose-dependent manner
same,Viability of cells at 10^-5 M monensin,"human skin fibroblasts [3]; with propranolol 2×10^-7 M, monensin 10^-5 M",fully viable
CCN(CC)CCCC(C)Nc1c2ccc(Cl)cc2nc2ccc(OC)cc12 (stereo not shown) [Quinacrine],CC50 at 16 h,"in vitro; ID50 (M), Drug + Monensin",4.2e-05 M
same,CC50 at 16 h,"in vitro; ID50 (M), Drug Alone",1.3e-05 M
same,Factor of Protection (ID50 with monensin / ID50 alone),human skin fibroblasts [1],3.2
CO[C@@H]1C[C@@H](C[C@H]2CC[C@H](C)[C@H]([C@@H](C)C(=O)O)O2)O[C@]2(O[C@](C)([C@H]3CC[C@@](C)([C@@H]4O[C@@H]([C@H]5O[C@@](O)(CO)[C@H](C)C[C@@H]5C)C[C@@H]4C)O3)C[C@H]2C)[C@@H]1C [Nigericin],"Factor of Protection, Chloroquine (ID50 with agent / ID50 alone)","human skin fibroblasts [1]; against chloroquine cytotoxicity, agent 1.5 × 10^-7 M",11
C[C@@H]1C[C@H]2CC[C@H](O2)[C@H](C)C(=O)O[C@@H](C)C[C@@H]2CC[C@@H](O2)[C@@H](C)C(=O)O[C@H](C)C[C@H]2CC[C@H](O2)[C@H](C)C(=O)O[C@@H](C)C[C@@H]2CC[C@@H](O2)[C@@H](C)C(=O)O1 [Nonactin],"Factor of Protection, Chloroquine (ID50 with agent / ID50 alone)","human skin fibroblasts [1]; against chloroquine cytotoxicity, agent 5 × 10^-6 M",26
same,"Factor of Protection, Propranolol (ID50 with agent / ID50 alone)","human skin fibroblasts [1]; against propranolol cytotoxicity, agent 5 × 10^-6 M",1
"N#CC(C#N)=NNc1cccc(Cl)c1 [Carbonyl cyanide m-chlorophenylhydrazone, carbonyl cyanide m-chlorophenylhydrazone]","Factor of Protection, Chloroquine (ID50 with agent / ID50 alone)",human skin fibroblasts [1]; [6],13
same,"Factor of Protection, Propranolol (ID50 with agent / ID50 alone)",human skin fibroblasts [1]; [7],1
"Oc1ccc2ccccc2c1-c1c(O)ccc2ccccc12 [(R)(+)-1,1'-bi-2-Naphthol, (R)(+)-1,1'-bi-2-naphthol]","Factor of Protection, Chloroquine (ID50 with agent / ID50 alone)","human skin fibroblasts [1]; against chloroquine cytotoxicity, agent 3.5 × 10^-5 M",2.9
"CCN(CC)CCCC(C)Nc1ccnc2cc(Cl)ccc12 (stereo not shown) [Chloroquine, chloroquine]",Accumulation in lysosomes,lysosomes,have been shown to accumulate in lysosomes
same,Permeation through human epidermis with versus without ammonium chloride,[4],the same
same,CC50 at 16 h,"in vitro; ID50 (M), Drug + Monensin",0.0007 M
same,CC50 at 16 h,"in vitro; ID50 (M), Drug Alone",7e-05 M
same,Factor of Protection (ID50 with monensin / ID50 alone),human skin fibroblasts [1],10.0
same,"Factor of Protection, Propranolol (ID50 with agent / ID50 alone)",human skin fibroblasts [1],1
CCNCC [Diethylamine],"Factor of Protection, Chloroquine (ID50 with agent / ID50 alone)",human skin fibroblasts [1]; [5],3.3
CC(C)[C@@H]1NC(=O)[C@H](C)OC(=O)[C@@H](C(C)C)NC(=O)[C@@H](C(C)C)OC(=O)[C@H](C(C)C)NC(=O)[C@H](C)OC(=O)[C@@H](C(C)C)NC(=O)[C@@H](C(C)C)OC(=O)[C@H](C(C)C)NC(=O)[C@H](C)OC(=O)[C@@H](C(C)C)NC(=O)[C@@H](C(C)C)OC1=O [Valinomycin],"Factor of Protection, Chloroquine (ID50 with agent / ID50 alone)",human skin fibroblasts [1]; [6],13
same,"Factor of Protection, Propranolol (ID50 with agent / ID50 alone)",human skin fibroblasts [1]; [7],1
CN(C)CCCN1c2ccccc2Sc2ccc(Cl)cc21 [Chlorpromazine],CC50 at 16 h,"in vitro; ID50 (M), Drug + Monensin, Table A, with 10^-6 M monensin, 16 h",1.6e-05 M
same,CC50 at 16 h,"in vitro; ID50 (M), Drug Alone, Table A, 16 h",1e-05 M
same,Factor of Protection (ID50 with monensin / ID50 alone),human skin fibroblasts [1],1.6
NC(CO)(CO)CO [Tromethamine],"Factor of Protection, Chloroquine (ID50 with agent / ID50 alone)",human skin fibroblasts [1],1.2
C1COCCOCCOCCOCCO1 [15-Crown-5],"Factor of Protection, Chloroquine (ID50 with agent / ID50 alone)",human skin fibroblasts [1],1
same,"Factor of Protection, Propranolol (ID50 with agent / ID50 alone)",human skin fibroblasts [1],1
CN(C)CCCN1c2ccccc2CCc2ccccc21 [Imipramine],CC50 at 16 h,"in vitro; ID50 (M), Drug + Monensin",0.00027 M
same,CC50 at 16 h,"in vitro; ID50 (M), Drug Alone",0.00019 M
same,Factor of Protection (ID50 with monensin / ID50 alone),human skin fibroblasts [1],1.4
Ammonium chloride,"Factor of Protection, Chloroquine (ID50 with agent / ID50 alone)","human skin fibroblasts [1]; against chloroquine cytotoxicity, agent 4 × 10^-2 M",26
same,"Factor of Protection, Propranolol (ID50 with agent / ID50 alone)","human skin fibroblasts [1]; against propranolol cytotoxicity, agent 4 × 10^-2 M, pre-treatment of 2 hours with agent",1.3
Gramicidin D,"Factor of Protection, Chloroquine (ID50 with agent / ID50 alone)",human skin fibroblasts [1]; [6],31
same,"Factor of Protection, Propranolol (ID50 with agent / ID50 alone)",human skin fibroblasts [1]; [7],1
CN1CCC[C@@H]1CCO[C@](C)(c1ccccc1)c1ccc(Cl)cc1 [Clemastine],Factor of Protection (ID50 with monensin / ID50 alone),human skin fibroblasts [1],1.2
OCCNCCO [Diethanolamine],"Factor of Protection, Chloroquine (ID50 with agent / ID50 alone)",human skin fibroblasts [1],1.5
"CC(C)NCC(O)COc1cccc2ccccc12 (stereo not shown) [Propranolol, propranolol]",Accumulation in lysosomes,lysosomes,have been shown to accumulate in lysosomes
same,CC50 at 16 h,"in vitro; ID50 (concentration of drug required to kill 50% of the cells), drug alone",0.00028 M
same,CC50 at 16 h,"in vitro; ID50 (concentration of drug required to kill 50% of the cells), drug with monensin",0.00038 M
same,"Factor of Protection, Chloroquine (ID50 with agent / ID50 alone)",human skin fibroblasts [1],1.8
NCCO [Ethanolamine],"Factor of Protection, Chloroquine (ID50 with agent / ID50 alone)",human skin fibroblasts [1],6.4
